Source: article PMC5897267 (EJNMMI Research, 2018)
Where “and” joins values, the source holds several entries; their conditions need not be identical. Equal values may be shown once.

What was measured:
PSMA = target: T1, PSMA (Homo sapiens, UniProt Q04609); experiment: Competitive binding assay (IC50) on LNCaP cells with ([125I]I-BA)KuE as radioligand; conditions: cold reference ligands, ([125I]I-BA)KuE 0.2 nM, 1 h, 4°C, mean ± SD, n = 3, read-out: PSMA affinity (IC50)
T1 construct: host or cells: LNCaP cells
Method: Competitive binding experiments (IC50) were carried out using PSMA-expressing LNCaP cells and ([^125I]I-BA)KuE as standard radioligand. […] Data represent means ± SD (n = 3).
Determination of the PSMA binding affinities (IC50)
The culture medium was removed and the cells were washed with 500 µL of HBSS (Hank´s balanced salt solution, Biochrom Berlin, Germany, containing 1% bovine serum albumin (BSA)). Before the experiment the cells were left to equilibrate in 200 µL HBSS (1% BSA) for 15 min on ice. Afterwards, 25 µL/well of solutions containing the respective unlabeled inhibitor in increasing concentrations (10- 10 – 10^-4 M in HBSS (1% BSA)) or either HBSS (1% BSA) as control were added, followed by the addition of 25 µL of ([125I]I-BA)KuE as a competitor. The final concentration of the radioiodinated inhibitor was 0.2 nM in all assays. For each concentration the experiments were performed in triplicates. Incubation of the cells was carried out for 60 min on ice and terminated by removal of the assay medium. The cells were thoroughly rinsed with 250 µL of HBSS and the washing medium was combined with the supernatant of the previous step, representing the amount of free radioligand.
Then, the cells were lysed using 250 µL of 1 N NaOH, and the lysat was transferred to vials and combined with 250 µL of HBSS, which was used for an additional washing step (bound activity). The Quantification of the amount of free and bound radioactivity was performed in a γ-counter.
performed using LNCaP cells and ([125I]I-BA)KuE (0.2 nM) as radioligand (1 h, 4°C)

LNCaP-tumor-xenografts = experiment: Biodistribution in LNCaP-tumor-bearing SCID mice; format: in vivo; conditions: 1 h p.i., mean ± SD, n = 4
Method: To induce LNCaP tumor growth, male CB-17 SCID mice (6–8 weeks, Charles River Laboratories, Sulzfeld, Germany) were inoculated subcutaneously onto the right shoulder with LNCaP cells (approximately 1 × 10^7 cells/200 μL DMEM/Nutrition Mix F-12 with Glutamax-I (1:1) medium and Matrigel (BD Biosciences, Germany) (1:1)). After 3–5 weeks, tumor size reached 4–8 mm in diameter, and the animals were used for in vivo studies.
About 0.8–1 MBq of the ^18F-labeled tracer were injected into the tail vein of the mice (n = 8) under isoflurane anesthesia. Animals were sacrificed at 1 and 2 h p.i.; the organs of interest were dissected, and the activity in the weighed tissues samples was quantified using a γ-counter.
The high plasma protein binding and therefore delayed blood pool clearance of ^18F-PSMA-1007 leads to low tumor-to-blood and tumor-to-spleen ratios, especially 2 h p.i. (Fig. 5; Additional file 1: Figure S5).
Data are given in % IA/g are means ± SD (n = 4 animals per group and time point)

[1] = target: T2, human serum albumin (HSA) (Homo sapiens, UniProt P02768); experiment: Plasma protein binding on Chiralpak HSA column; format: in vitro ADME
T2 construct: purchased Chiralpak (manufacturer not given)
Method: Plasma protein binding of the tracers was determined using an analytical Chiralpak human serum albumin (HSA) column (50 × 3 mm, 5 μm) according to a previously published protocol with minor changes.

[2] = tested on: PSMA-expressing LNCaP cells; experiment: Internalization of the 18F-labeled ligands, normalized to ([125I]I-BA)KuE; format: cell-based, human; conditions: for Specific Internalization (1h; % of reference): LNCaP cells, 37°C, corrected for non-specific internalization (100 μM PMPA), reference ([125I]I-BA)KuE, mean ± SD, n = 3; for fold higher internalization rate than the reference ligands: versus 18F-DCFPyl and 18F-PSMA-1007, PSMA-expressing cells
Method: PSMA overexpressing LNCaP cells (CLS: 300265) were cultured in DMEM/Nutrition Mix F-12 with Glutamax-I (1:1) (Invitrogen, Life Technologies, Darmstadt, Germany) supplemented with 10% FCS and were maintained at 37 °C in a 5% CO2/humidified air atmosphere. For IC50 determination, approximately 150,000 cells/well were seeded on 24-well plates 1 day prior to the experiment. For internalization studies, 125,000 cells/well were seeded in PLL-coated 24-well plates. For cell counting, a Countesse automated cell counter (Invitrogen, Carlsbad, USA) was used.
PSMA affinity and internalization kinetics of the ^18F-labeled compounds were determined according to a previously published protocol. A detailed description is provided online in the supporting information.
Competitive binding experiments (IC50) were carried out using PSMA-expressing LNCaP cells and ([^125I]I-BA)KuE as standard radioligand. Internalization kinetics of the ^18F-labeled derivatives were also performed using PSMA-expressing LNCaP cells and ([^125I]I-BA)KuE (0.2 nM) as an internal reference. Data were corrected for non-specific internalization in the presence of 100 μM 2-phosphonomethyl pentanedioic acid (PMPA) and normalized to the specific internalization observed for the radioiodinated reference compound assayed in a parallel experiment. Data represent means ± SD (n = 3).
Internalization studies of the 18F-labeled EuE-based inhibitors, 18F-DCFPyl and 18F-PSMA-1007 were performed according to a previously published protocol. Briefly, after washing the cells with 0.5 mL DMEM-F12 (5% BSA), the cells were preconditioned for a minimum of 15 min with 200 µL DMEM-F12 (5% BSA) at 37°C. Then, 25 µL (per well) of either assay medium (total internalization) or of a 100 µM 2-PMPA solution (non-specific internalization) were added, followed by addition of 25 µL of assay medium containing the respective 18F-labeled PSMA inhibitor or ([125I]I-BA)KuE (0.2 nM). The internalization kinetics were determined by cell incubation at 37°C for 5, 15, 30, and 60 min, respectively. All experiments were carried out in triplicate for each time point (control and blocking).
Incubation was terminated by placing the plate on ice and by removal of the incubation medium. The cells were subsequently rinsed with 250 µL DMEM-F12 (5% BSA) and combined with the supernatant of the previous step (amount of free radioligand). To remove receptor surface-bound radioactivity, the cells were incubated with 250 µL of ice cold PMPA in PBS (10 µM) for 10 min. After removal of the supernatant, the cells were thoroughly rinsed with another 250 µL of ice-cold PBS and both fractions were combined (amount of receptor-bound radioactivity). By incubation of the cells with 250 µL 1N NaOH (5 min), the internalized activity was released, the suspension transferred to vials, and combined with 250 µL of 1N NaOH used for subsequent rinsing of the wells. Quantification of the amount of free, PMPA-releasable, and internalized activity was performed in a γ-counter. For analysis of the internalization, data for both the 18F-labeled compound of interest and for the reference ([125I]I-BA)KuE in the same experiment were first corrected by the amount of non-specific internalization (adding of 100 µM PMPA), respectively, and then each was normalized to the amount of internalized ligand in the absence of unlabeled competitor (100%). To eliminate the influence of cell count and cell viability on the absolute internalization values, data (60 min) are expressed as the ratio of the internalization of the compound of interest to the internalization (60 min) found for ([125I]I-BA)KuE in the same experiment (Fig 2, Fig S3). Data represent means ± SD (n=3).
18F-PSMA-1007 and reference ([125I]I-BA)KuE into LNCaP cells (37°C) (mean ± SD [n = 3]) *Specific internalization of the reference compound ([125I]I-BA)KuE assayed in a parallel experiment and used for data […]
The results of the metabolite analyses of the 18F-labeled EuE-based inhibitors, as well as of 18F-PSMA- […]

[3] = Metabolite analysis in mice, RP-HPLC of blood, urine and kidney extracts; conditions: 1 h p.i.
Method: (§14) Approximately 60–70 MBq of the ^18F-labeled inhibitors were injected into the tail vein of severe combined immunodeficiency (SCID) mice. The animals were sacrificed 1 h p.i., blood and urine were collected, and kidneys were dissected and after freezing with liquid nitrogen, homogenized with a ball mill and extracted with 1 mL PBS containing 200 nmol PMPA. After centrifugation (15,000g) and ultrafiltration, the extracts were analyzed by reversed phase high-performance liquid chromatography (RP-HPLC). Blood samples were centrifuged to separate the plasma from the blood cells. Additionally, plasma proteins were removed by precipitation with acetonitrile (10 min, on ice), subsequent centrifugation and ultrafiltration. The blood extracts and the urine samples were analyzed using RP-HPLC. For RP-HPLC, a Nucleosil 100 C18 (5 μm, 125 × 4.0) column and different HPLC-systems were used (EuE-based inhibitors: flow rate: 2 mL/min; Gradient: 0–30% B in 20 min; HPLC-System A (see Additional file 1); ^18F-PSMA-1007: flow rate: 1.5 mL/min; Gradient: 5–55% B in 10 min; HPLC-System B (see Additional file 1); solvent A: 0.1% trifluoroacetic acid (TFA) in water, solvent B: 0.1% TFA in MeCN).

[4] = CD-1, mouse, in vivo, 1 h
Method: as §14

mCRPC patient = experiment: PET/MR imaging of a mCRPC patient (compassionate use); format: in vivo, human; conditions: PET/MR 62 min after injection of 158 MBq
Method: Based on the promising preclinical results obtained for EuE-k-^18F-FBOA (1) a mCRPC patient (PSA 392 ng/ml) was imaged under compassionate use. The agent was applied in compliance with The German Medicinal Products Act, Arzneimittelgesetz (AMG) §13 2b, and in accordance with the responsible regulatory body (Government of Oberbayern). The patient underwent PET/MR imaging 62 min after injection of 158 MBq of EuE-k-^18F-FBOA (Fig. 6).
Images show the typical biodistribution of PSMA ligands with minimal blood pool retention.

T1 sequence (Q04609 whole entry): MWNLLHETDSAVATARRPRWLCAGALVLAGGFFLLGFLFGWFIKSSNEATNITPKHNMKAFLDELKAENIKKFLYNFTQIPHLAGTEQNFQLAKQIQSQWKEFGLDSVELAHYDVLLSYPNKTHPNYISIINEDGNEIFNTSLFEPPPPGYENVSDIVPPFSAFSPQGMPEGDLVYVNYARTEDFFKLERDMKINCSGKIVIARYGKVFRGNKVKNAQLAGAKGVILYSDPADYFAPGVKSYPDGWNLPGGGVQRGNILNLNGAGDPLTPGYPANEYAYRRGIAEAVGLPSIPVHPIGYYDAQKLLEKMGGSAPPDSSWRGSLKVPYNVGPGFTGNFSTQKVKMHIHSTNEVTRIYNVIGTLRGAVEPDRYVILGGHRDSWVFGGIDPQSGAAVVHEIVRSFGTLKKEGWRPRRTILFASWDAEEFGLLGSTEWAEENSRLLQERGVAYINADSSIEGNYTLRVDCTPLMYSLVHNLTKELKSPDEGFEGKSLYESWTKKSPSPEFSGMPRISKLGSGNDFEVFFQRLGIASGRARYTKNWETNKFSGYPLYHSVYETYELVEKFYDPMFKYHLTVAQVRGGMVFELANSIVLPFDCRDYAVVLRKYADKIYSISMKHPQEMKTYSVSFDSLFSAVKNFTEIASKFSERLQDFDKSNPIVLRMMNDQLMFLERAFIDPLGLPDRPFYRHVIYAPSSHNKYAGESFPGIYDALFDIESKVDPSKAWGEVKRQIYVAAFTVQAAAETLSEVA
T2 sequence (P02768 25-609): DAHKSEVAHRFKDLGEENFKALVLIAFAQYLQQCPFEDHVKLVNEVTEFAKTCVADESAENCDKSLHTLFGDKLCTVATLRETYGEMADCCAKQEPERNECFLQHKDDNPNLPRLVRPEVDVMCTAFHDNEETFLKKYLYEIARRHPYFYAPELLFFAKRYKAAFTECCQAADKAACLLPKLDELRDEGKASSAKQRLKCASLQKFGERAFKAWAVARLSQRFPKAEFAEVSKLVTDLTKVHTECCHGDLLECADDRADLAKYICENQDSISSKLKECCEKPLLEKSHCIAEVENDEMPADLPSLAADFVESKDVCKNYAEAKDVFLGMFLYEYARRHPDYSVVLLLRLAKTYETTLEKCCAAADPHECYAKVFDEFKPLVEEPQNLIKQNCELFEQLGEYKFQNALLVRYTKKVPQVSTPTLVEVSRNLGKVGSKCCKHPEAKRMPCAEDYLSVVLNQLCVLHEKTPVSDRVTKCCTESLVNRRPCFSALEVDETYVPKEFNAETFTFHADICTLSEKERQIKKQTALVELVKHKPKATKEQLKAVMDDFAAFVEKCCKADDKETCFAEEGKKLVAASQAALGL

SMILES	IC50 (PSMA)	tumor accumulation (LNCaP-tumor-xenografts)	Human serum albumin binding (plasma protein binding) [1]	Specific Internalization (1h; % of reference) [2]	more hydrophilic metabolite, share of total activity in the kidneys ([3]; kidneys)	more hydrophilic metabolite, share of total activity in the urine ([3]; urine)	intact tracer in blood, urine and kidneys [4]	fold higher internalization rate than the reference ligands [2]	enhanced internalization into LNCaP cells compared to EuE-k-18F-FBOA ([2]; versus EuE-k-18F-FBOA)	uptake in bone and lymph node metastases, mean SUVmax (mCRPC patient)	uptake in bone and lymph node metastases, mean SUVmean (mCRPC patient)	uptake in the kidneys (SUVmean) (mCRPC patient)	uptake in the liver (SUVmean) (mCRPC patient)	uptake in the salivary glands (SUVmean) (mCRPC patient)	uptake in the spleen (SUVmean) (mCRPC patient)
O=C(O)CC[C@H](NC(=O)N[C@@H](CCCCNC(=O)[C@H](Cc1ccc2ccccc2c1)NC(=O)c1ccc(CNC(=O)[C@H](CCC(=O)O)NC(=O)[C@H](CCC(=O)O)NC(=O)c2ccc(F)nc2)cc1)C(=O)O)C(=O)O [^18F-PSMA-1007]	4.2 ± 0.5 nM														
O=C(O)CCC(NC(=O)NC(CCCCNC(=O)c1ccc([18F])nc1)C(=O)O)C(=O)O (stereo not shown) [^18F-DCFPyl, 2-(3-{1-Carboxy-5-[(6-[18F]fluoro-pyridine-3-carbonyl)-amino]-pentyl}-ureido)-pen tanedioic acid, reference compound]		7.3 ± 1.0 % IA/g	14.3%	118 ± 4 % of reference											
O=C(O)CC[C@H](NC(=O)N[C@@H](CCCCNC(=O)[C@H](Cc1ccc2ccccc2c1)NC(=O)c1ccc(CNC(=O)[C@H](CCC(=O)O)NC(=O)[C@H](CCC(=O)O)NC(=O)c2ccc([18F])nc2)cc1)C(=O)O)C(=O)O [^18F-PSMA-1007]		7.1 ± 1.5 % IA/g	98% and 97.8%	118 ± 5 % of reference	4%	2%									
O=C(O)CCC(NC(=O)NC(CCC(=O)NC(CCCCNC(=O)CCNC(=O)c1ccc([18F])nc1)C(=O)O)C(=O)O)C(=O)O (stereo not drawn) [EuE-k-β-a-^18F-FPyl]	1.1 ± 0.2 nM	13.0 ± 1.0 % IA/g	12.0%	323 ± 2 % of reference			100%	2.7 fold	twofold						
O=C(O)CCC(NC(=O)NC(CCC(=O)NC(CCCCNC(=O)CON=Cc1ccc([18F])cc1)C(=O)O)C(=O)O)C(=O)O (stereo not shown) [EuE-k-^18F-FBOA]	4.2 ± 0.4 nM	12.7 ± 2.0 % IA/g	13.4%	165 ± 4 % of reference			100%	1.4 fold		21.6 (range 15.4–28.2)	14.7 (range 9.2–19)	14.0	6.4	5.8	6.1
